Results as given in PMC6277767, “Broad and Region-Specific Impacts of the Synthetic Cannabinoid CP 55,940 in Adolescent and Adult Female Mouse Brains” (Frontiers in Molecular Neuroscience, 2018).

System: CD1 female mouse brain lipidome
Assay: Brain-region lipid levels (HPLC/MS/MS lipidomics) 2 h after single i.p. 3 mg/kg CP 55,940 vs vehicle
Assay type: in vivo
Design: N-arachidonoyl phenylalanine level, Mean / N-stearoyl tryptophan level, Mean / N-stearoyl proline level, Mean / N-stearoyl leucine level, Mean / N-stearoyl phenylalanine level, Mean / N-stearoyl serine level, Mean / N-stearoyl methionine level, Mean: unit: moles per gram
Procedure: The Bloomington Institutional Animal Care and Use Committee of Indiana University reviewed and approved the animal procedures. Female mice from the CD1 strain were utilized to match our study examining THC’s effects on the brain lipidome ([Leishman et al., 2018]). Mice were given a single i.p. injection of either 3 mg/kg CP or 1:1:18 cremophor:ethanol:saline vehicle (please refer to the section “3 mg/kg CP Is Relevant for Synthetic Cannabinoid Abuse and Has Stronger Effects on the Female Mouse Brain Lipidome During Adolescence” for a justification of dose and use of female mice). Three different age groups were given injections: PND 35 and PND 50 adolescents, and adult mice (PND 113). At least eight mice in each age group received CP and at least eight received vehicle. Matching the THC study time course ([Leishman et al., 2018]), mice were sacrificed via rapid decapitation 2 h after injection. Brains were immediately removed and flash-frozen in liquid nitrogen, and then stored at -80°C until dissections were performed. Brains were dissected on an ice-cold dissection plate into the following regions: STR, HIPP, CER, THAL, CTX, HYP, MID, and STEM. These abbreviations for these brain areas will be used exclusively when discussing the results generated by these specific dissections. Each dissected area was immediately placed in liquid nitrogen and then stored at -80°C until used for lipid extraction.
Tissue extracts were performed as previously described ([Bradshaw et al., 2006]; [Stuart et al., 2013]; [Raboune et al., 2014]; [Leishman et al., 2016a],[b], [2017], [2018]). First, samples were shock frozen in liquid nitrogen, weighed, and transferred to a centrifuge tube. The mass of the largest sample was multiplied by 50 to determine how many milliliters of HPLC-grade methanol (Fisher, Fair Lawn, NJ, United States) to add. Then, samples were spiked with 500 pmol deuterium-labeled NAGly (d8NAGly; Cayman Chemical, Ann Arbor, MI, United States). Samples were placed on ice in darkness for 2 h then individually homogenized and centrifuged at 19,000 × g for 20 min at 20°C. Supernatants were diluted with HPLC water (purified in house) to make a solution of 75% water, 25% supernatant. Lipids were partially purified on C18 solid phase extraction columns (Agilent, Palo Alto, CA, United States). A series of four elutions with 1.5 mL of 60%, 75%, 85%, and 100% methanol were collected ([Stuart et al., 2013]; [Leishman et al., 2016a],[b], [2018]).
As previously described ([Bradshaw et al., 2006]; [Tan et al., 2006]; [Smoum et al., 2010]; [Stuart et al., 2013]; [Tortoriello et al., 2013]; [Raboune et al., 2014]; [Leishman et al., 2016a],[b], [2017], [2018]), samples were analyzed using an Applied Biosystems API 3000 triple quadrupole mass spectrometer with electrospray ionization (Foster City, CA, United States). Using an Agilent XDB-C18 reversed phase analytical column and optimized mobile phase gradients, 20 μL from each elution were chromatographed. Two Shimadzu 10ADvp pumps (Columbia, MD, United States) provided the pressure for gradient elution. Mobile phase A: 20% methanol, 80% water (v/v) and 1 mM ammonium acetate (Sigma, St. Louis, MO, United States). Mobile phase B: 100% methanol, 1 mM ammonium acetate. Every method run began with 0% mobile phase B, reached 100% mobile phase B flowing at 0.2 mL/min, and gradually returned to 0% mobile phase B.
This screening library will be referred to as the lipidome when discussing data from this study. HPLC/MS/MS data were analyzed using Analyst software (Applied Biosystems) ([Bradshaw et al., 2006]; [Tan et al., 2006]; [Stuart et al., 2013]; [Tortoriello et al., 2013]; [Raboune et al., 2014]; [Leishman et al., 2016a],[b], [2017], [2018]). Chromatograms (Supplementary Figure 3) were generated by determining the retention time of analytes from the analytical column with a [M-1] or [M+1] parent peak and a fragmentation peak corresponding to the programmed values. […]

[1] = adult female mice, brainstem, 3mg/kg CP 55,940
[2] = adult hypothalamus, 3 mg/kg CP 55,940

CCCCCCC(C)(C)c1ccc([C@@H]2C[C@H](O)CC[C@H]2CCCO)c(O)c1 [CP 55,940]
6-ketoPGF1α level, Mean [1]: 2.07E-11 | Arachidonic acid level, Mean [1]: 4.08E-10 | Linoleic acid level, Mean [1]: 4.56E-10 | N- stearoyl valine level, Mean [1]: 2.21E-14 | N-arachidonoyl proline level, Mean [1]: BDL | N-arachidonoyl serine level, Mean [1]: PISSR | N-arachidonoyl taurine level, Mean [1]: 2.62E-11 | N-arachidonoyl tryptophan level, Mean [1]: BDL | N-arachidonoyl tyrosine level, Mean [1]: 6.33E-13 | N-docosahexaenoyl proline level, Mean [1]: BDL | N-docosahexaenoyl serine level, Mean [1]: PISSR | N-docosahexaenoyl tryptophan level, Mean [1]: BDL | N-docosahexaenoyl tyrosine level, Mean [1]: 5.03E-13 | N-docosahexaenoyl valine level, Mean [1]: BDL | N-linoleoyl proline level, Mean [1]: BDL | N-linoleoyl serine level, Mean [1]: 1.98E-11 | N-linoleoyl tryptophan level, Mean [1]: BDL | N-linoleoyl tyrosine level, Mean [1]: PISSR | N-linoleoyl valine level, Mean [1]: PISSR | N-nervonoyl valine level, Mean [1]: BDL | N-oleoyl proline level, Mean [1]: BDL | N-oleoyl serine level, Mean [1]: 1.03E-10 | N-oleoyl tryptophan level, Mean [1]: BDL | N-oleoyl tyrosine level, Mean [1]: 5.06E-13 | N-oleoyl valine level, Mean [1]: 1.48E-14 | N-palmitoyl proline level, Mean [1]: BDL | N-palmitoyl serine level, Mean [1]: 1.08E-11 | N-palmitoyl tryptophan level, Mean [1]: BDL | N-palmitoyl tyrosine level, Mean [1]: 7.4E-13 | N-palmitoyl valine level, Mean [1]: 1.28E-13 | N-stearoyl proline level, Mean [1]: BDL | N-stearoyl serine level, Mean [1]: 1.31E-11 | N-stearoyl tryptophan level, Mean [1]: BDL | Oleic acid level, Mean [1]: 4.28E-10 | PGE2 level, Mean [1]: 1.64E-10 | PhosphoLEA level, Mean [1]: 2.15E-12 | 2-arachidonoyl glycerol level, Mean [2]: 2.11E-09 | 2-linoleoyl glycerol level, Mean [2]: 1.7E-10 | 2-oleoyl glycerol level, Mean [2]: 1.71E-09 | 2-palmitoyl glycerol level, Mean [2]: 1.78E-10 | 6-ketoPGF1α level, Mean [2]: 2.15E-11 | 11-OH-THC level, Mean [2]: BDL | 11-nor-9-carboxyTHC level, Mean [2]: BDL | Arachidonic acid level, Mean [2]: 6.14E-10 | Cannabidiol level, Mean [2]: BDL | Linoleic acid level, Mean [2]: 1.2E-10 | N-arachidonoyl GABA level, Mean [2]: 2.05E-11 | N-arachidonoyl dopamine level, Mean [2]: BDL | N-arachidonoyl ethanolamine level, Mean [2]: 6.61E-12 | N-arachidonoyl glycine level, Mean [2]: 2.96E-13 | N-arachidonoyl methionine level, Mean [2]: BDL | N-arachidonoyl phenylalanine level, Mean [2]: 1.34E-13 | N-arachidonoyl proline level, Mean [2]: BDL | N-arachidonoyl serine level, Mean [2]: BDL | N-arachidonoyl taurine level, Mean [2]: 1.91E-11 | N-arachidonoyl tryptophan level, Mean [2]: BDL | N-docosahexaenoyl ethanolamine level, Mean [2]: 1.18E-11 | N-docosahexaenoyl methionine level, Mean [2]: BDL | N-docosahexaenoyl proline level, Mean [2]: BDL | N-docosahexaenoyl tryptophan level, Mean [2]: BDL | N-docosahexaenoyl valine level, Mean [2]: BDL | N-linoleoyl GABA level, Mean [2]: BDL | N-linoleoyl ethanolamine level, Mean [2]: 6.58E-12 | N-linoleoyl methionine level, Mean [2]: BDL | N-linoleoyl proline level, Mean [2]: BDL | N-linoleoyl serine level, Mean [2]: 1.16E-10 | N-linoleoyl tryptophan level, Mean [2]: BDL | N-linoleoyl tyrosine level, Mean [2]: BDL | N-linoleoyl valine level, Mean [2]: BDL | N-nervonoyl valine level, Mean [2]: BDL | N-oleoyl alanine level, Mean [2]: 4.79E-12 | N-oleoyl dopamine level, Mean [2]: BDL | N-oleoyl ethanolamine level, Mean [2]: 7.29E-11 | N-oleoyl glycine level, Mean [2]: 2.66E-13 | N-oleoyl methionine level, Mean [2]: BDL | N-oleoyl phenylalanine level, Mean [2]: 5E-13 | N-oleoyl proline level, Mean [2]: BDL | N-oleoyl serine level, Mean [2]: 5.82E-10 | N-oleoyl tryptophan level, Mean [2]: BDL | N-palmitoyl GABA level, Mean [2]: 3.12E-11 | N-palmitoyl alanine level, Mean [2]: 2.7E-12 | N-palmitoyl ethanolamine level, Mean [2]: 2.56E-11 | N-palmitoyl glycine level, Mean [2]: 2.34E-12 | N-palmitoyl leucine level, Mean [2]: 1.88E-12 | N-palmitoyl methionine level, Mean [2]: BDL | N-palmitoyl phenylalanine level, Mean [2]: 3.42E-13 | N-palmitoyl proline level, Mean [2]: BDL | N-palmitoyl tryptophan level, Mean [2]: BDL | N-palmitoyl tyrosine level, Mean [2]: 1.11E-12 | N-palmitoyl valine level, Mean [2]: 1.56E-13 | N-stearoyl alanine level, Mean [2]: 2.77E-12 | N-stearoyl ethanolamine level, Mean [2]: 7.07E-12 | N-stearoyl glycine level, Mean [2]: 2.2E-12 | N-stearoyl leucine level, Mean [2]: 1.65E-12 | N-stearoyl methionine level, Mean [2]: BDL | N-stearoyl phenylalanine level, Mean [2]: 2.86E-13 | N-stearoyl proline level, Mean [2]: BDL | N-stearoyl serine level, Mean [2]: 4.88E-11 | N-stearoyl tryptophan level, Mean [2]: BDL | Oleic acid level, Mean [2]: 2.14E-10 | PGE2 level, Mean [2]: 2.25E-10 | PhosphoLEA level, Mean [2]: 5.73E-11
